Data as given in US11582971B2, “Crystalline forms of deltamethrin and methods of use thereof” (priority 2019, dated 2023).

Columns and labels:
[1] = tested on: fruit flies (Drosophila melanogaster); assay: Polymorph lethality, dust, residual exposure method, fruit flies; format: in vivo; conditions: for average knockdown time / median knockdown time (KT50): 2 mg deltamethrin dust; for average knockdown time / median knockdown time (KT50) / longest survival (no individual survived more than) / onset of hyperactivity: female fruit flies; for longest survival (no individual survived more than) / onset of hyperactivity: 2 mg dust in 35 mm Petri dish
Description: (§1) The effect of deltamethrin polymorphs on fruit flies was determined by the residual exposure method. Bruck, D. J.; Bolda, M.; Tanigoshi, L.; Klick, J.; Kleiber, J.; DeFrancesco, J.; Gerdeman, B.; Spitler, H. Laboratory and field comparisons of insecticides to reduce infestation of Drosophila suzukii in berry crops. Pest. Manag. Sci. 2011, 67, 1375-1385. Lethality assays were performed for each powder sample as well as a control. Female fruit flies (Drosophila melanogaster) were temporarily anesthetized by CO2 exposure, then transferred to the 35 mm diameter petri dishes with deltamethrin dust. The dishes were covered with their mating top and the motion of the fruit flies was recorded to establish knockdown time (i.e., the time after which there was no further translational motion).
The lethalities of the two crystalline forms of deltamethrin were compared by exposing fruit flies (Drosophila melanogaster), a well-established model for pesticide development (Schneider, D. Using Drosophila as a Model Insect. Nat. Rev. Genet. 2000, 1, 218-226), to 2 mg of the respective dusts (containing […] deltamethrin Form I or Form II) dispersed evenly in 35 mm-diameter plastic Petri dishes. Each trial was performed in triplicate for each crystalline form, as well as a control.
The motions of fruit flies were monitored by a video camera. A custom designed video process programmer was used to record the onset of hyperactivity and to track the time required for the expiration of the flies, as measured by knockdown. […] (FIG. 5A). Both the onset of hyperactivity and death occurred much later for deltamethrin Form I-exposed flies.
(§2) Lethality was deduced by the standard measurement of knockdown time, defined as time when a fly is immobile in a supine or sideways position for at least one second (i.e., no translational motion). Lindquist, A. W.; Jones, H. A.; Madden, A. H. DDT Residual-type sprays as affected by light. J. Econ. Entomol. 1946, 39, 55-59. Paralyzed flies never recover.
FIGS. 5A and 5B depict the graphs of the lethality comparison of the two forms of deltamethrin, in terms of fly velocities and knockdown times. The corresponding average knockdown times and median knockdown times (KT50) are denoted. The median knockdown time (KT50) for each polymorph was determined from multiple trials using twenty female flies each. KT50 is defined as the time required to render 50 percent of the insects motionless. Kawada, H.; Dida, G. O.; Ohashi, K.; Komagata, O.; Kasai, S.; Tomita, T.; Sonye, G.; Maekawa, Y.; Mwatele, C.; Njenga, S. M.; Mwandawiro, C; Minakawa, N.; Takagi, M. Multimodal pyrethroid resistance in malaria vectors, Anopheles gambiae s.s., Anopheles arabiensis, and Anopheles funestus s.s. in Western Kenya. PLoS One 2011, 6, No. e22574; Limoee, M.; Ladonni, H.; Enayati, A. A.; Vatandoost, H.; Aboulhasani, M. Detection of pyrethroid resistance and cross resistance to DDT in seven field-collected strains of the German cockroach, Blattella germanica (L.) (Dictyoptera: Blattellidae). J Biol. Sci. 2006, 6, 382-387. The average knockdown times for 2 mg deltamethrin dusts with Form I and Form II were 123 minutes and 21 minutes, respectively. The KT50 values were 113 minutes and 20 minutes, respectively (FIG. 5B).

[2] = tested on: yellow fever mosquitos (Aedes aegypti); assay: Polymorph lethality, dust, residual exposure method, Aedes mosquitoes; format: in vivo; conditions: for average knockdown time / median knockdown time (KT50): 2 mg deltamethrin dust
Description: as §1, with “on yellow fever mosquitos (Aedes aegypti)” for “on fruit flies”, “each dust” for “each powder”, “Female Aedes mosquitoes” for “Female fruit flies (Drosophila melanogaster)”, “the 90” for “the 35”, “the mosquitoes” for “the fruit flies”
The lethalities of the two crystalline forms of deltamethrin were compared by exposing yellow fever mosquitos (Aedes aegypti) to 2 mg of the respective dusts (containing […] deltamethrin Form I or Form II) dispersed evenly in 90 mm-diameter plastic Petri dishes. Each trial was performed in duplicate for each crystalline form, as well as a control.
The motions of mosquitoes were monitored by a video camera. A custom designed video process programmer was used to record the onset of hyperactivity and to track the time required for the expiration of the mosquitoes, as measured by knockdown. No Form I-exposed fly survived more than 300 minutes. […] (FIG. 6A). The death occurred much later for deltamethrin Form I-exposed mosquitoes.
as §2, with “mosquito” for “fly”
FIGS. 6A and 6B depict the graphs of the lethality comparison of the two forms of deltamethrin, in terms of mosquito velocities and knockdown times. The corresponding average knockdown times and median knockdown times (KT50) are denoted. The median knockdown time (KT50) for each polymorph was determined from multiple trials using twenty female mosquitoes each. KT50 is defined as the time required to render 50 percent of the insects motionless. Kawada, H.; Dida, G. O.; Ohashi, K.; Komagata, O.; Kasai, S.; Tomita, T.; Sonye, G.; Maekawa, Y.; Mwatele, C.; Njenga, S. M.; Mwandawiro, C; Minakawa, N.; Takagi, M. Multimodal pyrethroid resistance in malaria vectors, Anopheles gambiae s.s., Anopheles arabiensis, and Anopheles funestus s.s. in Western Kenya. PLoS One 2011, 6, No. e22574; Limoee, M.; Ladonni, H.; Enayati, A. A.; Vatandoost, H.; Aboulhasani, M. Detection of pyrethroid resistance and cross resistance to DDT in seven field-collected strains of the German cockroach, Blattella germanica (L.) (Dictyoptera: Blattellidae). J. Biol. Sci. 2006, 6, 382-387. The average knockdown times for 2 mg deltamethrin Form I and Form II dust were 202 minutes and 22 minutes, respectively. The KT50 values were 192 minutes and 21 minutes, respectively (FIG. 6B).

[3] = tested on: Drosophila melanogaster; assay: Polymorph lethality, polyethylene glycol coated crystalline thin film; format: in vivo; conditions: for average knockdown time / median knockdown time (KT50): polyethylene glycol coated crystalline film (2.2*2.2 cm^2)
From the text: FIGS. 7A-7B are a lethality comparison of the two forms of deltamethrin. FIG. 7A is a graph depicting the velocities of fruit flies exposed to crystalline films (2.2*2.2 cm^2) of deltamethrin Form I and II; FIG. 7B is a comparison of Drosophila melanogaster knockdown times on crystalline films (2.2*2.2 cm^2) of deltamethrin Form I and Form II.
The knockdown times for neat thin films are too short to allow a valid comparison of their lethality. Therefore, thin films of deltamethrin Form I and Form II were prepared and partially coated by nebulized polyethylene glycol, producing islands of inert material with a small fraction of the deltamethrin film exposed (FIG. 7B). […] The corresponding average knockdown times and median knockdown times (KT50) are denoted. The average knockdown times for polyethylene glycol coated deltamethrin Form I and Form II crystalline film were 385 minutes and 70 minutes, respectively. The KT50 values were 400 minutes and 61 minutes, respectively (FIG. 7B).
This confirms that Form I dust is transformed to Form II dust by the microwave heating treatment.

[4] = Phase behavior / thermodynamic stability of deltamethrin polymorphs; format: physicochemical
Description: Thermodynamic stability of deltamethrin polymorphs was evaluated by the phase transformation behaviors and respective melting points. […] Rarely, transformation from Form II to Form I can be observed between crossed polarizers when spherulites of Form II are in contact with concomitant polycrystalline Form I (FIG. 4A, 4B). Form II fibers grow radially along their <010> direction. […] Upon phase transformation to Form I, the orientation of new grains become misaligned, resulting in a loss of observable birefringence. At room temperature the transformation can be observed by a moving growth front, which advances at a velocity of 0.3 μm/min.

[5] = female Aedes aegypti, 2 mg dust in 90 mm Petri dish

## CC1(C)[C@H](C(=O)O[C@H](C#N)c2cccc(Oc3ccccc3)c2)[C@@H]1C=C(Br)Br [Form I, (S)-cyano(3-phenoxyphenyl) methyl (1R,3R)-3-(2,2-dibromovinyl)-2,2-dimethylcyclopropane-1-carboxylate, reference compound]
[1]
  average knockdown time: 123 min
  median knockdown time (KT50): 113 min
  longest survival (no individual survived more than): ≤ 210 min
  onset of hyperactivity: 40 min
[2]; female Aedes aegypti
  average knockdown time: 202 min
  median knockdown time (KT50): 192 min
[2]; [5]
  longest survival (no individual survived more than): ≤ 300 min
[3]
  average knockdown time: 385 min
  median knockdown time (KT50): 400 min

## CC1(C)[C@H](C(=O)O[C@H](C#N)c2cccc(Oc3ccccc3)c2)[C@@H]1C=C(Br)Br [Form II, (S)-cyano(3-phenoxyphenyl) methyl (1R,3R)-3-(2,2-dibromovinyl)-2,2-dimethylcyclopropane-1-carboxylate]
[4]; crystalline film confined between glass slides, 6 months at room temperature
  transformation of Form II to Form I on storage: did not transform to Form I
[4]; room temperature
  room temperature stability ranking: Form I> Form II
[4]; room temperature, Form II spherulites in contact with polycrystalline Form I
  velocity of the growth front of the Form II to Form I transformation: 0.3 μm/min
[1]
  average knockdown time: 21 min
  median knockdown time (KT50): 20 min
  longest survival (no individual survived more than): ≤ 40 min
  onset of hyperactivity: as soon as they were exposed
[1]; dust, fruit flies
  lethality ranking: more lethal than Form I
[2]; female Aedes aegypti
  average knockdown time: 22 min
  median knockdown time (KT50): 21 min
[2]; dust, Aedes aegypti
  lethality ranking: more lethal than Form I
[2]; [5]
  longest survival (no individual survived more than): ≤ 30 min
  onset of hyperactivity: as soon as they were exposed
[3]
  average knockdown time: 70 min
  median knockdown time (KT50): 61 min
[3]; thin films
  knockdown times, comparison of the forms: shorter for Form II than for Form I
